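A five-concentration, 48-hour dose response in 96-well plates underlies each endpoint, interpolated linearly between surrounding concentrations. Here, GI50 denotes the concentration required for 50% inhibition of growth.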 Active and inactive are the calls of the source. Rule as the data show it: active = GI50 up to about 1.1 µM and inactive = higher. Non-standard residues stand in square brackets, D forms with d. Residues, ends and D or L forms follow the SMILES beside them. ξ: configuration not given here. *: point of attachment. Cbz = O=C(OCc1ccccc1)*; ξK = NCCCCC(N)C(=O)O

Among the test systems are KM12; MDA-N; NCI-H23; HT-29; U-251; HCT-15; NCI-H522; LOX IMVI; NCI-H460; T47D; SR; SK-MEL-28; SN12C; HOP-92; OVCAR-8; SW-620; HOP-62; SK-OV-3; EKVX; HL-60.
What all share (assay): inhibition of tumour cell growth, NCI panel, 48 h

With `COc1ccc(NCc2cnc3nc(N)nc(N)c3c2C)cc1`, the GI50 was 6.41 µM (inactive) with KM12; 0.174 µM (active) in the experiment on MDA-N; 0.628 µM (active) with NCI-H23; 0.406 µM (active) with HT-29; 0.555 µM (active) in the experiment on U-251; 0.443 µM with HCT-15. For the same compound, the GI50 was 5.52 µM (inactive) in the experiment with NCI-H522; 0.316 µM (active) in the experiment on LOX IMVI; 0.433 µM (active) in the experiment on NCI-H460; 15 µM (inactive) with T47D; 0.449 µM (active) in the experiment on SR; 8.51 µM (inactive) in the experiment on SK-MEL-28. Further, the GI50 in the experiment with SN12C was 3.85 µM (inactive); in the experiment on HOP-92, 5.93 µM (inactive); with OVCAR-8, 0.167 µM (active); in the experiment on SW-620 it was 0.914 µM (active); with HOP-62, 1.16 µM (inactive); in the experiment on SK-OV-3, 4.34 µM (inactive). Moreover, the GI50 in the experiment with EKVX is 15.7 µM (inactive).

Regarding `COC(=O)NNC(=O)OC.COC(=O)Nc1ccccc1NC(=O)OC.COC(=O)Oc1nn(C(=O)OC)c(=O)c2ccccc12`, the GI50 in the experiment with KM12 was > 100 µM (inactive); with MDA-N, > 100 µM (inactive); with NCI-H23 it was > 100 µM (inactive); with HT-29, > 100 µM (inactive); in the experiment with U-251 it was > 100 µM (inactive); in the experiment with HCT-15, greater than 100 µM. Besides, the GI50 in the experiment on NCI-H522, in the experiment with LOX IMVI, in the experiment on NCI-H460, in the experiment with T47D, with SR and in the experiment with SK-MEL-28 was > 100 µM (inactive) in each case. The GI50 with SN12C, in the experiment on HL-60, with OVCAR-8, in the experiment with SW-620, in the experiment on HOP-62 and with SK-OV-3 was > 100 µM (inactive) each time. In the experiment on EKVX, the GI50 is > 100 µM (inactive).

For `O=C1NCC2(CCN(CCCC3(c4ccc(F)cc4)OCCO3)CC2)N1c1ccccc1`, the GI50 is > 100 µM (inactive) in the experiment on KM12; > 100 µM (inactive) with MDA-N; > 100 µM (inactive) in the experiment on NCI-H23; 84.5 µM (inactive) in the experiment on HT-29; > 100 µM (inactive) with U-251; greater than 100 µM in the experiment on HCT-15. The GI50 in the experiment on NCI-H522, in the experiment with LOX IMVI, in the experiment on NCI-H460, in the experiment with T47D, with SR and with SK-MEL-28 was > 100 µM (inactive) each time. For the same compound, the GI50 with SN12C is > 100 µM (inactive); in the experiment with HL-60, > 100 µM (inactive); with HOP-92, 36.7 µM (inactive); in the experiment on OVCAR-8, > 100 µM (inactive); with SW-620, 32.7 µM (inactive); with HOP-62 it was > 100 µM (inactive). Further, in the experiment with EKVX, the GI50 was > 100 µM (inactive).

In the case of `CN1CC=C(OP(=O)(NCc2ccccc2)N(CCCl)CCCl)CC1` (configuration not stated), the GI50 in the experiment on KM12 is > 100 µM (inactive); in the experiment with MDA-N, > 100 µM (inactive); with NCI-H23, > 100 µM (inactive); with HT-29, 61.8 µM (inactive); in the experiment on U-251, > 100 µM (inactive); in the experiment with HCT-15, greater than 100 µM. The GI50 with LOX IMVI is > 100 µM (inactive); in the experiment on NCI-H460, > 100 µM (inactive); with T47D it was > 100 µM (inactive); with SR it was > 100 µM (inactive); with SK-MEL-28 it was 95.3 µM (inactive); with SN12C, > 100 µM (inactive). In addition, the GI50 in the experiment on HL-60, in the experiment with HOP-92, in the experiment on OVCAR-8, in the experiment on SW-620, in the experiment with HOP-62 and in the experiment on SK-OV-3 was > 100 µM (inactive) throughout. In the experiment with EKVX, the GI50 was > 100 µM (inactive).

For the compound `C=C[C@]1(C)CC[C@]2(C)C(CC[C@@]3(C)C2C[C@H](O)[C@H](O)[C@@]3(C)O)C1` (some centres not stated), the GI50 with KM12 is > 100 µM (inactive); in the experiment with MDA-N, > 100 µM (inactive); with NCI-H23 it was > 100 µM (inactive); in the experiment with HT-29 it was > 100 µM (inactive); in the experiment with U-251, > 100 µM (inactive); with HCT-15 it was greater than 100 µM. In addition, the GI50 in the experiment on NCI-H522, in the experiment with LOX IMVI, in the experiment on NCI-H460, in the experiment on T47D, with SR and with SK-MEL-28 was > 100 µM (inactive) throughout. Moreover, the GI50 in the experiment on SN12C, in the experiment on HL-60, in the experiment with OVCAR-8, with SW-620, with HOP-62 and in the experiment on SK-OV-3 was > 100 µM (inactive) in each case. For the same compound, the GI50 in the experiment on EKVX was > 100 µM (inactive).

Take `Cc1ccc(C(=O)/C=C(\O)C(=O)NC23CC4CC(CC(C4)C2)C3)cc1`: the GI50 in the experiment on KM12 was > 10 µM (inactive); in the experiment on MDA-N, > 10 µM (inactive); in the experiment on NCI-H23, 5.43 µM (inactive); with HT-29, > 10 µM (inactive); with HCT-15, 6.27 µM; in the experiment with LOX IMVI, 0.851 µM (active). Further, the GI50 with T47D is > 10 µM (inactive); in the experiment on SR, 3.62 µM (inactive); with SK-MEL-28 it was > 10 µM (inactive); in the experiment on SN12C, 7.59 µM (inactive); with HL-60, 4.25 µM (inactive); with HOP-92, > 10 µM (inactive). The GI50 in the experiment on OVCAR-8 was > 10 µM (inactive); in the experiment on SW-620 it was > 10 µM (inactive); with HOP-62 it was 6.7 µM (inactive); in the experiment with SK-OV-3, > 10 µM (inactive); with EKVX, > 10 µM (inactive).

Turning to `CO/N=C(\C(=O)Nc1cncs1)c1csc(N)n1`, the GI50 in the experiment on KM12 was > 10 µM (inactive); with MDA-N, > 10 µM (inactive); in the experiment on NCI-H23, > 10 µM (inactive); in the experiment with HT-29 it was > 10 µM (inactive); with U-251 it was > 10 µM (inactive); in the experiment with HCT-15 it was greater than 10 µM. The GI50 in the experiment with NCI-H522, in the experiment with LOX IMVI, in the experiment on NCI-H460, in the experiment on T47D, with SR and in the experiment on SK-MEL-28 was > 10 µM (inactive) in each case. The GI50 in the experiment with SN12C, in the experiment with HOP-92, in the experiment on OVCAR-8, in the experiment on SW-620, in the experiment with HOP-62 and in the experiment with SK-OV-3 was > 10 µM (inactive) throughout. The GI50 in the experiment on EKVX is > 10 µM (inactive).

`CCOC(=O)c1nc2c3c(ncn2n1)Oc1c(c(-c2ccccc2)nn1-c1ccccc1)C3c1ccc(Cl)cc1` (configuration not stated): the GI50 is 15.1 µM (inactive) with KM12; > 100 µM (inactive) with MDA-N; > 100 µM (inactive) in the experiment on NCI-H23; > 100 µM (inactive) in the experiment with HT-29; > 100 µM (inactive) with U-251; greater than 100 µM with HCT-15. The GI50 in the experiment on NCI-H522, in the experiment on LOX IMVI, in the experiment with NCI-H460, with T47D, in the experiment with SR and with SK-MEL-28 was > 100 µM (inactive) each time. Further, the GI50 in the experiment with SN12C, in the experiment on HL-60, in the experiment with HOP-92, in the experiment with OVCAR-8, in the experiment with SW-620 and with HOP-62 was > 100 µM (inactive) each time. The GI50 in the experiment with SK-OV-3 is > 100 µM (inactive).

As to `BrC(c1cccc2ccccc12)c1cccc2ccccc12`, the GI50 with KM12 is 15.5 µM (inactive); in the experiment on MDA-N it was 15.1 µM (inactive); in the experiment with NCI-H23, 19.9 µM (inactive); with HT-29 it was 18.3 µM (inactive); with U-251 it was 16.9 µM (inactive); with HCT-15, 17.7 µM. Moreover, the GI50 in the experiment with NCI-H522 is 10.9 µM (inactive); in the experiment on LOX IMVI, 15.8 µM (inactive); in the experiment on NCI-H460, 15.9 µM (inactive); with T47D, 29.4 µM (inactive); with SR, > 100 µM (inactive); with SK-MEL-28, 19.5 µM (inactive). Besides, the GI50 with SN12C was 14.3 µM (inactive); with HL-60 it was 20 µM (inactive); in the experiment on HOP-92 it was 13.5 µM (inactive); in the experiment on OVCAR-8 it was 17.3 µM (inactive); with SW-620, 16.7 µM (inactive); in the experiment with HOP-62, 14.1 µM (inactive). Further, in the experiment with EKVX, the GI50 is 16.7 µM (inactive).

With `O=C(CCCn1ccnc1[N+](=O)[O-])NCCn1cnc([N+](=O)[O-])n1`, the GI50 with KM12 was > 100 µM (inactive); in the experiment with MDA-N it was > 100 µM (inactive); in the experiment on NCI-H23, > 100 µM (inactive); in the experiment on HT-29 it was > 100 µM (inactive); with U-251, > 100 µM (inactive); in the experiment on HCT-15 it was greater than 100 µM. Further, the GI50 in the experiment on NCI-H522, with LOX IMVI, in the experiment on NCI-H460, with T47D, in the experiment on SR and in the experiment with SK-MEL-28 was > 100 µM (inactive) in each case. Moreover, the GI50 with SN12C, with HL-60, in the experiment on HOP-92, with OVCAR-8, in the experiment on SW-620 and in the experiment with HOP-62 was > 100 µM (inactive) in each case. In the experiment on SK-OV-3, the GI50 is > 100 µM (inactive).

`NCCCCC(NC(=O)OCc1ccccc1)C(=O)NCC(N)=O` (configuration not stated) (Cbz-[ξK]-Gly-NH2): the GI50 with KM12 was > 100 µM (inactive); with MDA-N, > 100 µM (inactive); with NCI-H23 it was > 100 µM (inactive); with HT-29 it was > 100 µM (inactive); in the experiment with U-251 it was > 100 µM (inactive); in the experiment on HCT-15 it was greater than 100 µM. Also, the GI50 with NCI-H522, in the experiment on LOX IMVI, with NCI-H460, with T47D, with SR and in the experiment with SK-MEL-28 was > 100 µM (inactive) throughout. In addition, the GI50 in the experiment on SN12C, in the experiment on HOP-92, in the experiment with OVCAR-8, in the experiment with SW-620, in the experiment with HOP-62 and with SK-OV-3 was > 100 µM (inactive) in each case. Also, the GI50 in the experiment on EKVX is > 100 µM (inactive).

The record behind these values is ChEMBL document CHEMBL1201862, “PubChem BioAssay data set” (2004).
